#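 Five compound concentrations were applied to cells in 96-well plates for 48 hours; endpoints were derived by simple linear interpolation of the resulting dose-response curve. GI50 marks 50% less growth.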 Activity calls are given as the source filed them. Rule as the data show it: active = GI50 up to about 1.1 µM and inactive = higher.
# How the values were obtained:
# Experiment in all cases: inhibition of tumour cell growth, NCI panel, 48 h
# SF-268 = test system: SF-268
# HL-60 = test system: HL-60
# MCF7 = test system: MCF7
# SN12C = test system: SN12C
# HOP-62 = test system: HOP-62
# U-251 = test system: U-251
# DU-145 = test system: DU-145
# NCI-H460 = test system: NCI-H460
# SF-539 = test system: SF-539
# CAKI-1 = test system: CAKI-1
# BT-549 = test system: BT-549
# HCT-15 = test system: HCT-15
# OVCAR-4 = test system: OVCAR-4
# UO-31 = test system: UO-31
# SK-MEL-28 = test system: SK-MEL-28
# TK-10 = test system: TK-10
# Malme-3M = test system: Malme-3M
# SK-MEL-2 = test system: SK-MEL-2
Structure (SMILES),GI50 (SF-268),GI50 (HL-60),GI50 (MCF7),GI50 (SN12C),GI50 (HOP-62),GI50 (U-251),GI50 (DU-145),GI50 (NCI-H460),GI50 (SF-539),GI50 (CAKI-1),GI50 (BT-549),GI50 (HCT-15) [µM],GI50 (OVCAR-4),GI50 (UO-31),GI50 (SK-MEL-28),GI50 (TK-10),GI50 (Malme-3M),GI50 (SK-MEL-2)
COC1/C=C/C=C(/C)Cc2cc(O)c(Cl)c(c2)N(C)C(=O)CC(OC(=O)C(C)C)C2(C)OC2C(C)C2CC1(O)NC(=O)O2 (stereo unspecified),< 0.01 µM (active),< 0.01 µM (active),< 0.01 µM (active),< 0.01 µM (active),0.0673 µM (active),< 0.01 µM (active),< 0.01 µM (active),< 0.01 µM (active),< 0.01 µM (active),21.2 µM (inactive),< 0.01 µM (active),< 0.01,< 0.01 µM (active),< 0.01 µM (active),–,–,–,–
CC(C)C(=O)[C@@]1(C)SC[C@H]2CCN=C21,–,> 100 µM (inactive),> 100 µM (inactive),> 100 µM (inactive),–,–,> 100 µM (inactive),> 100 µM (inactive),> 100 µM (inactive),17 µM (inactive),> 100 µM (inactive),> 100,74.6 µM (inactive),58.6 µM (inactive),> 100 µM (inactive),> 100 µM (inactive),46.7 µM (inactive),–
ClCCN1CCOC1=C1C=CC=C1,> 100 µM (inactive),96.6 µM (inactive),> 100 µM (inactive),> 100 µM (inactive),43.9 µM (inactive),> 100 µM (inactive),> 100 µM (inactive),> 100 µM (inactive),> 100 µM (inactive),> 100 µM (inactive),> 100 µM (inactive),> 100,–,> 100 µM (inactive),> 100 µM (inactive),–,–,–
Cc1ccc([S+]([O-])c2cccs2)cc1 (stereo unspecified),> 100 µM (inactive),> 100 µM (inactive),> 100 µM (inactive),> 100 µM (inactive),> 100 µM (inactive),> 100 µM (inactive),> 100 µM (inactive),> 100 µM (inactive),> 100 µM (inactive),–,> 100 µM (inactive),> 100,–,> 100 µM (inactive),> 100 µM (inactive),> 100 µM (inactive),> 100 µM (inactive),–
CCC(/C=C/c1ccccc1)=N\Nc1ccc(Cl)c(Cl)c1,36.3 µM (inactive),27.8 µM (inactive),28.7 µM (inactive),24.4 µM (inactive),41.9 µM (inactive),3.22 µM (inactive),89.1 µM (inactive),33.3 µM (inactive),25.8 µM (inactive),34.9 µM (inactive),–,29.7,–,21.4 µM (inactive),48.1 µM (inactive),56.6 µM (inactive),32.1 µM (inactive),17.7 µM (inactive)
CCN(CC)CCCNc1nc(=O)[nH]c(C)c1C(=O)Nc1c2ccccc2nc2ccccc12,–,5.01 µM (inactive),7.78 µM (inactive),15.4 µM (inactive),24.8 µM (inactive),12.6 µM (inactive),12.8 µM (inactive),–,11.9 µM (inactive),7.28 µM (inactive),–,4.8,3.96 µM (inactive),5.6 µM (inactive),12.3 µM (inactive),17.1 µM (inactive),7.87 µM (inactive),20.8 µM (inactive)
CCOC(CN(C)C(=S)Nc1cccc2ccccc12)OCC,> 10 µM (inactive),> 10 µM (inactive),> 10 µM (inactive),> 10 µM (inactive),> 10 µM (inactive),> 10 µM (inactive),> 10 µM (inactive),> 10 µM (inactive),> 10 µM (inactive),> 10 µM (inactive),–,> 10,> 10 µM (inactive),> 10 µM (inactive),> 10 µM (inactive),> 10 µM (inactive),> 10 µM (inactive),> 10 µM (inactive)
CCOC(=O)c1ccc(Nc2cnc3cc(C(F)(F)F)ccc3n2)cc1,> 100 µM (inactive),> 100 µM (inactive),> 10 µM (inactive),> 100 µM (inactive),> 100 µM (inactive),> 100 µM (inactive),> 100 µM (inactive),> 100 µM (inactive),79.6 µM (inactive),> 100 µM (inactive),> 100 µM (inactive),> 100,> 100 µM (inactive),> 100 µM (inactive),85.9 µM (inactive),> 100 µM (inactive),> 100 µM (inactive),–
O=c1[nH]ncc2[nH]c3c4ccccc4ccc3c12,37.2 µM (inactive),80.7 µM (inactive),18.4 µM (inactive),–,40.6 µM (inactive),24.8 µM (inactive),> 100 µM (inactive),32.1 µM (inactive),50.1 µM (inactive),48.2 µM (inactive),93.8 µM (inactive),12.4,44.5 µM (inactive),25.5 µM (inactive),–,28.6 µM (inactive),19.6 µM (inactive),–
CC1(C)C2CCC1(C)C(NC(=O)COCCOCC(N)=O)C2 (stereo unspecified),> 100 µM (inactive),56.2 µM (inactive),> 100 µM (inactive),> 100 µM (inactive),> 100 µM (inactive),> 100 µM (inactive),> 100 µM (inactive),> 100 µM (inactive),> 100 µM (inactive),> 100 µM (inactive),> 100 µM (inactive),–,> 100 µM (inactive),> 100 µM (inactive),> 100 µM (inactive),> 100 µM (inactive),> 100 µM (inactive),–
O=C(Nc1cnc(O)nc1O)C(Cl)Cl,–,> 100 µM (inactive),> 100 µM (inactive),> 100 µM (inactive),> 100 µM (inactive),> 100 µM (inactive),> 100 µM (inactive),–,> 100 µM (inactive),> 100 µM (inactive),–,> 100,> 100 µM (inactive),> 100 µM (inactive),> 100 µM (inactive),> 100 µM (inactive),> 100 µM (inactive),> 100 µM (inactive)
COC(=O)c1nc(Cl)nc(Cl)c1Cl,19.1 µM (inactive),–,28.2 µM (inactive),20.9 µM (inactive),30.2 µM (inactive),26.1 µM (inactive),70.3 µM (inactive),32.2 µM (inactive),24.5 µM (inactive),18.2 µM (inactive),–,21.9,19.5 µM (inactive),19.2 µM (inactive),21.1 µM (inactive),21.2 µM (inactive),20.8 µM (inactive),–
C=C(Cl)C(Cl)(CBr)CCC(Br)C(C)(C)Br (stereo unspecified),3.22 µM (inactive),2.19 µM (inactive),1.5 µM (inactive),7.28 µM (inactive),1.06 µM (active),1.77 µM (inactive),3.97 µM (inactive),1.72 µM (inactive),1.99 µM (inactive),2.47 µM (inactive),7.66 µM (inactive),3.03,16.3 µM (inactive),8.17 µM (inactive),2.95 µM (inactive),1.49 µM (inactive),14.3 µM (inactive),–
O=C(c1ccccc1)N1C(=S)NC(=N/c2ccccc2)/C1=N\c1ccccc1,> 100 µM (inactive),> 100 µM (inactive),–,> 100 µM (inactive),> 100 µM (inactive),> 100 µM (inactive),> 100 µM (inactive),> 100 µM (inactive),> 100 µM (inactive),> 100 µM (inactive),–,> 100,> 100 µM (inactive),> 100 µM (inactive),> 100 µM (inactive),> 100 µM (inactive),> 100 µM (inactive),> 100 µM (inactive)
COc1cc(/C=C/C(=O)OC2C(O)C3CC(OC(=O)c4cc(OC)c(OC)c(OC)c4)CC2N3C)cc(OC)c1OC (stereo unspecified),> 50 µM (inactive),–,23 µM (inactive),9.89 µM (inactive),26.4 µM (inactive),40.5 µM (inactive),> 50 µM (inactive),21.8 µM (inactive),21.4 µM (inactive),27 µM (inactive),> 50 µM (inactive),28.1,> 50 µM (inactive),10.4 µM (inactive),–,> 50 µM (inactive),–,47.1 µM (inactive)
O=S(=O)(O)c1ccc(/N=N\c2c(O)ccc3cc(Br)ccc23)cc1,> 100 µM (inactive),–,–,> 100 µM (inactive),> 100 µM (inactive),> 100 µM (inactive),> 100 µM (inactive),–,–,> 100 µM (inactive),> 100 µM (inactive),> 100,> 100 µM (inactive),> 100 µM (inactive),> 100 µM (inactive),> 100 µM (inactive),> 100 µM (inactive),> 100 µM (inactive)
OCC1OC(c2n[nH]c3c(O)ncnc23)C(O)C1O (stereo unspecified),–,3.02 µM (inactive),28.7 µM (inactive),10.3 µM (inactive),9.79 µM (inactive),47.9 µM (inactive),1.48 µM (inactive),10.6 µM (inactive),26 µM (inactive),6.81 µM (inactive),56.8 µM (inactive),6.03,7.89 µM (inactive),8.79 µM (inactive),50 µM (inactive),–,16.1 µM (inactive),–
COC1=CC(=O)c2c(cc(COP(N)(=O)N(CCBr)CCBr)n2C)C1=O (stereo unspecified),< 0.01 µM (active),0.0113 µM (active),< 0.01 µM (active),< 0.01 µM (active),–,< 0.01 µM (active),< 0.01 µM (active),< 0.01 µM (active),< 0.01 µM (active),< 0.01 µM (active),–,0.242,1.66 µM (inactive),0.131 µM (active),1.56 µM (inactive),0.484 µM (active),0.308 µM (active),1.7 µM (inactive)

# Source: ChEMBL document CHEMBL1201862, “PubChem BioAssay data set” (2004)
